These are literature values, as cited in patent US9370574B2, “Composite absorbable/biodegradable rings for controlled drug delivery” (Poly-Med, Inc., priority 2003, dated 2016).

In series [1] the test system is bacterial vaginosis. Conditions: 5 gm gel (0.75%) twice-daily for 5 days.
The test system of series [2] is bacterial vaginosis.
Series [3] deals with cervical intraepithelial neoplasia (CIN). Conditions: collagen sponge in cervical cap.
The test system of series [4] is post-irradiation vaginal carcinoma in-situ. Particulars: 20% 5-FU over monthly 5-day courses.
The test system of series [5] is Human Papillomavirus (HPV)-associated lesions of the vulva and vagina. Particulars: biweekly doses of 5% cream for six months following ablative treatment.

On to `Cc1ncc([N+](=O)[O-])n1CCO` [metronidazole], for which the clinical cure rate in the series with bacterial vaginosis [1] (after 9 to 21 days) is listed as 87%. Also, the recurrence rate with bacterial vaginosis [1] (after one month) is listed as 15%. Further, the “failure rate after one month, high dose” value in the series with bacterial vaginosis [2] (high dose sponge (one gram once-daily for three days)) was 12%. Moreover, the cure rate in the series on bacterial vaginosis [2] (intravaginal sponges, 250 mg twice-daily two days or one gram once-daily three days, after one week) is on record as 85%. For the same compound, the “failure rate after one month, low dose” value with bacterial vaginosis [2] (low dose sponge (250 mg twice-daily for two days)) is listed as 42%.
For the compound `CC1=C(/C=C/C(C)=C/C=C/C(C)=C/C(=O)O)C(C)(C)CCC1` [RA, all-trans-retinoic acid], the “complete histologic regression of CIN II” value in series [3] (locally applied daily for 4 days) is 43%. Moreover, the “treatment effect in severe dysplasia (CIN III)” value in series [3] (locally applied) was “No treatment effect”.
Regarding `O=c1[nH]cc(F)c(=O)[nH]1` [Type 5-FU, 5-flurouracil], the initial complete response result in series [4] is on record as “seven of the eight”. In addition, the recurrences in series [5] is reported as 13%.
